Data as given in patent US11969511B2, “Methods and compositions for antimicrobial treatment” (UNM Rainforest Innovations, priority 2015, dated 2024).
Values after ≈ are worked out from the molar mass of the structure shown. Counter-ions that a name gives are not always drawn.

Tests used:
P. aeruginosa biofilms = assay: Minimum inhibitory concentration, biofilm phase (XTT); format: cell-based, Pseudomonas aeruginosa PAO1; settings: 24 h
P. aeruginosa = assay: Minimum inhibitory concentration of tobramycin (dilution series, plating); format: cell-based; settings: Pseudomonas aeruginosa
Procedure: Determination of minimum inhibitory concentration of tobramycin. […] Afterwards, tobramycin was serially diluted into 1 mL of DI H2O and added to the 1 mL aliquots of overnight bacterial culture to the final concentrations of tobramycin ranging from 25 to 250 μg/mL, with 25 μg/mL increments. For the control, 1 mL of sterile DI H2O was added to the aliquot of the culture. The cultures were then grown overnight on a rotary shaker at 37° C. and 150 rpm. The next day, 50 μL aliquots of the overnight cultures were diluted 1:2 with TSB, plated on the TS nutrient agar plates, and grown for 24 hours at 37° C. The next-day plates were checked for the presence of bacterial colonies. […] These findings introduce a starting point for inhibition of established biofilms. This is the MIC for tobramycin alone, without attachment to NPs.

P. aeruginosa biofilm = assay: Biofilm-inhibition through mucin and alginate barriers (in vitro CF biofilm model, disks); format: cell-based, Pseudomonas aeruginosa; set-up: key to Sensitivity, Mucin barrier / Sensitivity, Alginate barrier / Sensitivity, Both barriers: S for sensitive; I for intermediate; R for resistant; settings: tobramycin 2 mg/mL; for Sensitivity, Alginate barrier / Sensitivity, Both barriers / Sensitivity, Mucin barrier: NPs 50 mg/mL; for Biofilm inhibition (number), Alginate barrier / Biofilm inhibition (number), Both barriers / Biofilm inhibition (number), Mucin barrier: NPs alginate capped 50 mg/mL
Text: Disk diffusion method. The disk diffusion method is one of the most popular approaches to bacterial sensitivity testing due to its low cost and efficiency. The disk, impregnated with a candidate antibiotic drug or compound of interest, is placed on the inoculated agar; which contains a uniform layer of bacteria taken from liquid culture. The disks are commercially available, containing the proper concentrations of antibiotic drugs based on […]. As a low-cost alternative, disks may be prepared using filter paper soaked in the appropriate aqueous concentrations of the antibiotic drugs of interest. The underside of the plate is numbered for each sample to be tested. The cultures are distributed evenly onto a sterile agar plate using a sterile cotton swab to form a uniform layer on the agar. The disks, impregnated with NPs, drug, or NP-drug conjugates are then placed on top of the agar. The cultures are allowed to grow in the previous conditions overnight (16-18 hours). For these experiments, an vitro biofilm model was that would mimic the infection in CF in which there is an alginate and mucin barrier to drug diffusion.

[1] = after magnetic treatment at 24 hours

MIC80 of P. aeruginosa biofilms (P. aeruginosa biofilms) | MIC (P. aeruginosa; biofilm cells) | MIC (P. aeruginosa; planktonic cells) | SMILES | Sensitivity, Alginate barrier (P. aeruginosa biofilm; [1]) | Sensitivity, Both barriers (P. aeruginosa biofilm; [1]) | Sensitivity, Mucin barrier (P. aeruginosa biofilm; [1]) | Biofilm inhibition (number), Alginate barrier (P. aeruginosa biofilm; [1]) | Biofilm inhibition (number), Both barriers (P. aeruginosa biofilm; [1]) | Biofilm inhibition (number), Mucin barrier (P. aeruginosa biofilm; [1]) | Sensitivity, Alginate barrier (P. aeruginosa biofilm; no magnetic treatment) | Sensitivity, Both barriers (P. aeruginosa biofilm; no magnetic treatment) | Sensitivity, Mucin barrier (P. aeruginosa biofilm; no magnetic treatment) | Biofilm inhibition (number), Alginate barrier (P. aeruginosa biofilm; no magnetic treatment) | Biofilm inhibition (number), Both barriers (P. aeruginosa biofilm; no magnetic treatment) | Biofilm inhibition (number), Mucin barrier (P. aeruginosa biofilm; no magnetic treatment)
1 µg/mL | – | – | O=C(O)c1cn(C2CC2)c2cc(N3CCNCC3)c(F)cc2c1=O [Cipro, Ciprofloxacin hydrochloride] | – | – | – | – | – | – | – | – | – | – | – | –
– | 50 µg/mL (≈ 107 µM) | 15 µg/mL (≈ 32.1 µM) | NC[C@H]1O[C@H](O[C@H]2[C@H](O)[C@@H](O[C@H]3O[C@H](CO)[C@@H](O)[C@H](N)[C@H]3O)[C@H](N)C[C@@H]2N)[C@H](N)C[C@@H]1O [Tobramycin, tobramycin] | S | S | S | 30 | 20 | 32 | S | S | S | 40 | 40 | 30
